Data from article PMC7695835, “Pharmacological characterisation of novel adenosine A3 receptor antagonists” (Scientific Reports, 2020).

Tests used:
rat A3R = biological target: T1, rat A3R (Rattus norvegicus, UniProt P28647); experiment: NanoBRET ligand-binding, Nluc-rat A3R HEK 293 cells, AV039 tracer; details: for binding at rat A3R: no binding detected below the concentration of 10 μM; for pKi: rat A3R, 100 nM AV039, BRET ratio at 5 minutes, Cheng-Prusoff
T1 sequence (P28647 1-320): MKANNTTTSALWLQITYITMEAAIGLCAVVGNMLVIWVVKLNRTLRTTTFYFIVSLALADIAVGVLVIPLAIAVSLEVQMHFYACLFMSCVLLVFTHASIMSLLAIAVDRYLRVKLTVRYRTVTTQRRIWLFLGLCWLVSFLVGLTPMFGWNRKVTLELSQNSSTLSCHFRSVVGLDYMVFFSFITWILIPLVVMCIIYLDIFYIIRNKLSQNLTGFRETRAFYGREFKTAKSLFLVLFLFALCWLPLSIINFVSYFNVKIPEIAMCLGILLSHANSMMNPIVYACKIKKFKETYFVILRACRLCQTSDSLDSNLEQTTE

A3R [1] = biological target: T2, A3R (Homo sapiens, UniProt P0DMS8); details: for cAMP accumulation Mean: 10 μM forskolin + NECA IC80 (3.16 nM) + 1 μM compound, mean ± SEM, n = 3; for cAMP accumulation Mean difference between 'NECA' and compound: 10 μM forskolin + NECA IC80 + 1 μM compound; for outcome of cAMP-based screen: 1 μM compound
T2 sequence (P0DMS8 1-318): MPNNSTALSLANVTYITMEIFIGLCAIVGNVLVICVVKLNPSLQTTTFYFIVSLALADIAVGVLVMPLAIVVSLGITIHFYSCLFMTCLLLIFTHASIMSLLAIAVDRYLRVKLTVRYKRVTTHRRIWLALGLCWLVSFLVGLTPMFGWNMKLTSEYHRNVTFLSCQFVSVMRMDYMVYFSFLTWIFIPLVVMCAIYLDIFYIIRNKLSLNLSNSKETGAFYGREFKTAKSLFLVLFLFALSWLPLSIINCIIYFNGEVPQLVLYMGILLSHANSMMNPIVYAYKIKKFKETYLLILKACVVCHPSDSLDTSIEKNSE

A3R [2] = biological target: T2, A3R; details: 1 nM [3H]HEMADO; ref Lagarias et al.[19]; read-out: Radioligand binding Ki A3R; cited from earlier work
A1R = biological target: T3, A1R (Homo sapiens, UniProt P30542); parameters: method as in Lagarias et al.[19]; details: 1 nM [3H]CCPA; ref Lagarias et al.[19]; read-out: Radioligand binding Ki A1R; cited from earlier work
T3 construct: expressed in transfected cells
T3 sequence (P30542 1-326): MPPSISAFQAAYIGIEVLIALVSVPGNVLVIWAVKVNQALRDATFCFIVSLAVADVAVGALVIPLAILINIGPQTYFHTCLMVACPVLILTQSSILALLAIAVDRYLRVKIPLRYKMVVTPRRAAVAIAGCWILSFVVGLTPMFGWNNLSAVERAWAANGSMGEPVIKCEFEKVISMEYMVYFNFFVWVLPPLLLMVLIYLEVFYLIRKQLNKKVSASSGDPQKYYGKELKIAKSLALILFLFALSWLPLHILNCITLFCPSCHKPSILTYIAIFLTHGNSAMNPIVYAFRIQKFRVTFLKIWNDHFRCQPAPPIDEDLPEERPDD

A2AR = biological target: T4, A2AR (Homo sapiens, UniProt P29274); parameters: method as in Lagarias et al.[19]; details: 10 nM [3H]NECA; ref Lagarias et al.[19]; read-out: Radioligand binding Ki A2AR; cited from earlier work
T4 construct: expressed in transfected cells; host or cells: CHO cells, membrane preparation
T4 sequence (P29274 whole entry): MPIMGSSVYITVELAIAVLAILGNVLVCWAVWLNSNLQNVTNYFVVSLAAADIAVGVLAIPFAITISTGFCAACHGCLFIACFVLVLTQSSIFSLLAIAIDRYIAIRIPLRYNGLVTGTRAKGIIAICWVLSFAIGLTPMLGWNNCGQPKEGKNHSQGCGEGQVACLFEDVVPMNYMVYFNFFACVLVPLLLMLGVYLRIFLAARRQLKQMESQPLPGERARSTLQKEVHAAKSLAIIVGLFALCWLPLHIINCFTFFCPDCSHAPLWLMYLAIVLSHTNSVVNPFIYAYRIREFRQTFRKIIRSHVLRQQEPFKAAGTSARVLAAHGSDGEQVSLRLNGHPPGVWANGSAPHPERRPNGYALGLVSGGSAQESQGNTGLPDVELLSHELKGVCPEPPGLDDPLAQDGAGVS

A3R [3] = biological target: T2, A3R; experiment: NECA stimulated cAMP inhibition in A3R Flp-In CHO cells; format: cell-based; details: for Span: difference between Emin and basal; for Emin: lower plateau of NECA curve; for effect on NECA potency / antagonism: 1 μM compound; for effect on NECA potency / antagonism / effect on NECA potency: preliminary data; for Basal: upper plateau of NECA curve; for effect on NECA potency: 10 μM compound
[4] = 1 µM compound + 10 µM forskolin only
[5] = 10 µM compound + 10 µM forskolin only

cAMP accumulation Mean (A3R [1]) | cAMP accumulation Mean difference between 'NECA' and compound (A3R [1]) | Compound | Ki (A3R [2]) | Ki (A1R) | Ki (A2AR) | also measured
59.66 ±0.98 %10 μM forskolin response | 0.66 %10 μM forskolin response | Nc1sccc1C(=O)NCCc1ccccc1 [Compound K12] | 37.1 µM | > 100 µM | > 60 µM | 
56.25 ±1.44 %10 μM forskolin response | 4.07 %10 μM forskolin response | COc1ccc(CCNC(=O)c2c(N)sc3c2CCC3)cc1OC [Compound K13] | 16.5 µM | > 30 µM | > 60 µM | 
61.09 ±3.04 %10 μM forskolin response | -0.77 %10 μM forskolin response | COc1ccc(CCNC(=O)c2c(N)sc3c2CCCC3)cc1OC [Compound K14] | 14.8 µM | > 30 µM | > 60 µM | 
51.51 ±4.91 %10 μM forskolin response | 8.81 %10 μM forskolin response | NNC(=O)c1sc(-c2ccccc2)cc1N [Compound K16] | 19.7 µM | > 30 µM | 31.7 µM | 
64.58 ±4.94 %10 μM forskolin response | -4.26 %10 μM forskolin response | COc1ccccc1N=C(N)SCc1ccccc1 [Compound K19] | > 100 µM | > 100 µM | > 100 µM | 
73.54 ±2.98 %10 μM forskolin response | -13.22 %10 μM forskolin response | COc1cccc(C=NNC(=O)c2cc(-c3ccccc3)sc2N)c1 [Compound K21] | 5.77 µM | > 100 µM | 3.93 µM | True Basal (A3R [3]; [4]): 101.6 ±5.1; Span (A3R [3]; 1 µM compound): 119.4 ±9.4; Emin (A3R [3]; 1 µM compound): 2.0 ±7.6 % 10 µM forskolin response relative to NECA response; effect on NECA potency / antagonism (A3R [3]): no effect; Basal (A3R [3]; 1 µM compound): 121.5 ±6.1 % 10 µM forskolin inhibition, relative to NECA; True Basal (A3R [3]; [5]): 118.6 ±4.8; Span (A3R [3]; 10 µM compound): 104.6 ±7.7; Emin (A3R [3]; 10 µM compound): 30.1 ±6.8 % 10 µM forskolin response relative to NECA response; effect on NECA potency (A3R [3]): reduce the NECA potency; Basal (A3R [3]; 10 µM compound): 134.7 ±4.3 % 10 µM forskolin inhibition, relative to NECA; outcome of cAMP-based screen (A3R [1]): no activity
70.56 ±3.64 %10 μM forskolin response | -10.24 %10 μM forskolin response | Nc1sc(-c2ccccc2)cc1C(=O)NN=Cc1ccccc1 [Compound K22] | 5.16 µM | 15.2 µM | 4.59 µM | True Basal (A3R [3]; [4]): 101.9 ±8.4; Span (A3R [3]; 1 µM compound): 120.9 ±8.8; Emin (A3R [3]; 1 µM compound): 0.4 ±7.1 % 10 µM forskolin response relative to NECA response; effect on NECA potency / antagonism (A3R [3]): no effect; Basal (A3R [3]; 1 µM compound): 121.3 ±5.8 % 10 µM forskolin inhibition, relative to NECA; True Basal (A3R [3]; [5]): 124.5 ±8.2; Span (A3R [3]; 10 µM compound): 97.5 ±8.0; Emin (A3R [3]; 10 µM compound): 41.6 ±7.1 % 10 µM forskolin response relative to NECA response; effect on NECA potency (A3R [3]): reduce the NECA potency; Basal (A3R [3]; 10 µM compound): 139.1 ±4.2 % 10 µM forskolin inhibition, relative to NECA; outcome of cAMP-based screen (A3R [1]): no activity
51.39 ±3.11 %10 μM forskolin response | 8.93 %10 μM forskolin response | CC(C)(C)c1ccc(/C(N)=N/OC(=O)c2cnn(-c3ccccc3)c2C(F)(F)F)cc1 [Compound K24] | 5.39 µM | 7.48 µM | > 100 µM | True Basal (A3R [3]; [4]): 103.6 ±7.7; Span (A3R [3]; 1 µM compound): 103.7 ±7.9; Emin (A3R [3]; 1 µM compound): 5.9 ±6.5 % 10 µM forskolin response relative to NECA response; effect on NECA potency / antagonism (A3R [3]): no effect; Basal (A3R [3]; 1 µM compound): 109.5 ±4.9 % 10 µM forskolin inhibition, relative to NECA; True Basal (A3R [3]; [5]): 117.7 ±0.9; Span (A3R [3]; 10 µM compound): 107.4 ±5.7; Emin (A3R [3]; 10 µM compound): 23.4 ±4.5 % 10 µM forskolin response relative to NECA response; effect on NECA potency (A3R [3]): reduce the NECA potency; Basal (A3R [3]; 10 µM compound): 130.8 ±3.3 % 10 µM forskolin inhibition, relative to NECA; outcome of cAMP-based screen (A3R [1]): no activity
64.14 ±1.73 %10 μM forskolin response | -3.82 %10 μM forskolin response | CCOC(=O)CC(=O)Nc1ccsc1C(N)=O [Compound K28] | > 100 µM | 18 µM | 30 µM | 
71.56 ±3.54 %10 μM forskolin response | -11.24 %10 μM forskolin response | CCC(C)CC(=O)Nc1ccsc1C(N)=O (stereo not drawn) [Compound K35] | 27.4 µM | 7.33 µM | > 30 µM | 

The remaining lines, values behind:

Compound | cAMP accumulation Mean (A3R [1]) | cAMP accumulation Mean difference between 'NECA' and compound (A3R [1]) | Ki (A3R [2]) | Ki (A1R) | Ki (A2AR) | also measured
COc1ccc(-n2nc3c(NC(=O)CCC(=O)NCCOCCOCCNC(=O)CCCCCNC(=O)COc4ccc(/C=C/C5=[N+]6C(=Cc7ccc(-c8cccs8)n7[B-]6(F)F)C=C5)cc4)nc4ccccc4n3c2=O)cc1 [AV039, reference compound] |  |  |  |  |  | Kd (rat A3R; read-out: KD (saturation binding), fluorescent tracer at Nluc-rat A3R): 0.102 ± 0.00759 µM
COc1ccc(CSC(=N)Nc2ccccc2Cl)cc1.Cl [Compound K2] | 68.28 ±2.94 %10 μM forskolin response | -7.96 %10 μM forskolin response | 16.6 µM | > 100 µM | 61.3 µM | 
NC(=NOC(=O)c1csnn1)c1ccc(-c2csnn2)cc1 [Compound K3] | 63.37 ±2.66 %10 μM forskolin response | -3.05 %10 μM forskolin response | > 100 µM | > 100 µM | > 100 µM | 
NC(=NNC(=O)Nc1ccc(Cl)cc1)c1ccc(C(F)(F)F)cn1 [Compound K4] | 59.06 ±0.13 %10 μM forskolin response | 1.26 %10 μM forskolin response | > 100 µM | > 100 µM | > 100 µM | 
Cc1nc(C(N)=NOC(=O)c2c(-c3ccccc3)noc2C)cs1 [Compound K5] |  |  |  | > 100 µM | 21.8 µM | 
O=C(Nc1ccc(OC(F)(F)F)cc1)Nc1cc(-c2cccs2)n[nH]1 [Compound K6] | 64.01 ±5.22 %10 μM forskolin response | -3.69 %10 μM forskolin response | 30.6 µM | > 100 µM | > 100 µM | 
Cc1onc(-c2ccccc2Cl)c1C(=O)O/N=C(\N)c1ccc(I)cc1 [Compound K9] |  |  |  | 6.91 µM | > 100 µM | 
Cc1onc(-c2ccccc2Cl)c1C(=O)O/N=C(\N)c1cccnc1 [Compound K10] |  |  |  | > 60 µM | > 60 µM | binding at rat A3R (rat A3R): very weak binding; pKi (rat A3R): 4.19 ± 0.09
Cc1onc(-c2ccccc2Cl)c1C(=O)O/N=C(\N)c1ccncc1 [Compound K11] |  |  |  | > 60 µM | 30 µM | 
Cc1cccc(/C(N)=N/OC(=O)c2c(-c3ccccc3Cl)noc2C)c1 [Compound K15] |  |  |  | > 100 µM | > 100 µM | 
Cc1nc(C(N)=NOC(=O)c2c(-c3ccccc3Cl)noc2C)cs1 [Compound K17] |  |  |  | > 30 µM | > 60 µM | binding at rat A3R (rat A3R): very weak binding; pKi (rat A3R): 4.60 ± 0.09
